{
  "source": "PubChem BioAssay (NCI)",
  "note": "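Briefly, cells in 96-well plates were exposed to five compound concentrations for 48 h, and endpoints were estimated by linear interpolation. GI50 is the concentration that inhibits growth by half. TGI marks complete inhibition of growth.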",
  "data": [
    {"tested_on": "MDA-MB-468 breast", "experiment": "NCI tumour cell line growth inhibition, 48 h", "units": {"GI50": "µM", "TGI": "µM"}, "values": [
      {"molecule": "O=C1C(SCCO)=C(SCCO)C(=O)N1c1ccc(-c2ccccc2)cc1", "GI50": 0.534, "TGI": 1.5},
      {"molecule": "Cc1nn(-c2ccc([N+](=O)[O-])cc2)c2ncnc(N/N=C/c3ccccc3O)c12", "GI50": 1.09, "TGI": 3.88},
      {"molecule": "COc1ccc(CC(=O)c2ccc(O)cc2O)cc1", "GI50": 56.7, "TGI": "> 100"},
      {"molecule": "COc1ccccc1CNCCCN1C(=O)c2ccc3c4c(ccc(c24)C1=O)C(=O)N(CCCN)C3=O", "GI50": 0.333, "TGI": 1.36},
      {"molecule": "CC[C@H](CO)Nc1nc(NCc2ccccc2)c2ncn(C(C)C)c2n1", "GI50": 15.8, "TGI": 33.9},
      {"molecule": "COc1ccc(C2=CC(c3ccc(OC)cc3Br)N3C=CSC3=N2)cc1", "note": "(centres undefined)", "GI50": 2.65, "TGI": 10},
      {"molecule": "Cc1ccc(-c2csc(NC(=O)N3CCN(c4cc5c(cc4F)c(=O)c(C(=O)O)cn5C4CC4)CC3)n2)cc1", "GI50": 1.29, "TGI": 8.17},
      {"molecule": "N#CSCc1ccc(Cl)c(CSC#N)c1", "GI50": 0.129, "TGI": 32.6},
      {"molecule": "Cc1[nH]c(=O)nc(Nc2ccc(Cl)cc2)c1C(=O)N1CCN(CCO)CC1", "GI50": 34.8, "TGI": "> 100"},
      {"molecule": "Nc1c(C(=O)c2cccc(C#CCO)c2)cnn1-c1ccc(F)cc1", "GI50": "> 25", "TGI": "> 25"},
      {"molecule": "COc1ccc(/C=C(\\C(=O)NCc2cccnc2)S(=O)(=O)c2ccccc2)cc1OC", "GI50": 1.57, "TGI": 5.27},
      {"molecule": "CC(C)(C)c1[nH]nc2c1C(c1cc3ccccc3[nH]c1=O)Nc1cc(C(=O)OCc3ccccc3)ccc1N2", "note": "(centres undefined)", "GI50": 2.46, "TGI": 6.74},
      {"molecule": "C=C1CC[C@@H]2[C@](C)(COC(C)=O)[C@H](OC(C)=O)CC[C@@]2(C)[C@@H]1CC(Nc1ccc(S(=O)(=O)Nc2ccc(Cl)nn2)cc1)C1=CCOC1=O", "note": "(some centres undefined)", "GI50": 1.32, "TGI": 3.37},
      {"molecule": "COC(=O)c1cc2ccccc2c2c3c(ccc12)OCO3", "GI50": 48.8, "TGI": "> 1000"},
      {"molecule": "Cc1cnc(CNC(=O)c2c(=O)c3ccc(N4CCCN(C)CC4)nc3n3c2sc2ccccc23)cn1", "GI50": 15.7, "TGI": 34.8},
      {"molecule": "O1[As]2O[As]3O[As]1O[As](O2)O3", "GI50": 0.216, "TGI": 1.26},
      {"molecule": "O=C1NOC(c2ccc(O)cc2)(c2ccc(O)cc2)c2ccccc21", "GI50": "> 100", "TGI": "> 100"},
      {"molecule": "CCOC(=O)c1cc2c(n1Cc1cc(OC)c(OC)c(OC)c1)-c1oncc1CCC2", "GI50": 0.666, "TGI": "> 83.6"},
      {"molecule": "Cn1cc(-c2csc(-c3cn(CCCN4CCCCC4)c4ccccc34)n2)c2cccnc21", "GI50": 1.87, "TGI": 3.74},
      {"molecule": "[Cl][Ru].c1ccc(-c2cccc(-c3ccccn3)n2)nc1.c1ccc(-c2ccnc3c2ccc2c(-c4ccccc4)ccnc23)cc1", "GI50": 1.31, "TGI": 3.68},
      {"molecule": "O=C(Nc1ccc(Oc2cccc(F)c2)c(Cl)c1)c1cnccn1", "GI50": 0.834, "TGI": 4.99},
      {"molecule": "C#CCNCCN1C(=O)c2ccc3c4c(ccc(c24)C1=O)C(=O)N(CCNCC#C)C3=O", "GI50": 2.25, "TGI": 10.4},
      {"molecule": "COc1ccc(C(=O)/C=C/c2cccc(Nc3ccnc4cc(Cl)ccc34)c2)cc1", "GI50": 0.576, "TGI": 3.38},
      {"molecule": "N#Cc1c(NC(=O)c2ccc(F)c(Cl)c2)sc2c1CCC(=O)C2", "GI50": 0.387, "TGI": 1.95},
      {"molecule": "O=C1c2ccc3c4c(ccc(c24)C(=O)N1CCCNCc1ccccc1Cl)C(=O)N(CCCNCc1ccccc1Cl)C3=O", "GI50": 0.124, "TGI": 0.352},
      {"molecule": "CN(C)c1ccc(C(=NO)c2ccc(N(C)C)cc2)cc1", "GI50": 0.716, "TGI": 4.43},
      {"molecule": "CCN(CC)c1ccc(/C=N/NC(=O)c2ccc(NS(C)(=O)=O)cc2)cc1", "GI50": 0.358, "TGI": 3.81}
    ]}
  ]
}
